The values that follow are results of earlier work, collected in patent EP0514015A1, “Control of sex differentiation in fish” (MERCK & CO. INC., priority 1991, dated 1992).

One data set deals with Oreochromis aureus. The note with it: tilapia, broad range of doses, fed to 3 to 5-day old fry for a period of 22 days.
The next data set relates to Cyprinus carpio. The settings on record: carp, oral administration at 50ppm in feed from weeks 6 through 11 after hatching.

On to `C#C[C@]1(O)CC[C@H]2[C@@H]3CCC4=CC(=O)CC[C@]4(C)[C@H]3CC[C@@]21C` [17-alpha-ethynyltestosterone], for which the sex-reversing result with Oreochromis aureus is listed as “effective”.

For `C[C@]12CCC(=O)C=C1CC[C@@H]1[C@@H]2CC[C@@]2(C)[C@H]1CC[C@]2(C)O` [17-alpha-methyltestosterone], the phenotypic males result in the data set on Cyprinus carpio is on record as “greater than 90%”. For the same compound, the sex-reversing entry with Oreochromis aureus was “effective”.
